# Measurements from patent publication US12569453B2, “Use of tapinarof for the treatment of atopic dermatitis” (Dermavant Sciences GmbH, priority 2018, dated 2026).
# Marks after values point to notes of the source that are not given here.
# Tested on: adult subjects with psoriasis
# Assay: Phase II/2b clinical study in plaque psoriasis: efficacy and patient-reported outcomes
# Assay type: in vivo, human
# Conditions: for PGA response rate (primary endpoint): interim analysis; for subjects with ≥4 improvement in pruritus NRS score from baseline: baseline NRS score ≥4; for PGA response rate (PGA 0 or 1 and ≥2-grade improvement): mITT OC; for PGA treatment success: Week 16 (4 weeks after end of treatment)
# From the text: This was a multicenter (United States, Canada, and Japan), randomized, double-blind (Sponsor-unblind), vehicle-controlled, 6-arm, parallel-group, dose-finding study in adult subjects with psoriasis. Certain study personnel at each site were unblinded to dose-frequency.
# The study consisted of 3 periods: up to 4 weeks Screening, 12 weeks double-blind treatment, and 4 weeks post-treatment follow-up. Study visits occurred at Screening; Baseline; weeks 1, 2, 4, 8, and 12 during the treatment period; and 2 and 4 weeks after the last application of study treatment (i.e., at weeks 14 and 16). Additional visits could occur, as needed, for early withdrawals or to follow-up on any skin reactions or ongoing AEs. A subject's total duration of study participation was approximately 16 to 20 weeks.
# Two concentrations of Tapinarof cream (0.5% and 1%) and a vehicle control were evaluated following application to all psoriasis lesions (except on the scalp) once (QD) or twice daily (BID) for 12 weeks. There were no planned dose adjustments during the study.
# Efficacy was assessed by using a 5-point static Physician Global Assessment (PGA) (0-4 scale), the Psoriasis Area and Severity Index (PASI), % BSA involvement, target lesion assessments (erythema, scaling, and plaque thickness), and subject-reported itch/pruritus severity using a numeric rating scale (NRS) (from the Psoriasis Symptom Diary [PSD]). Additional subject-reported outcomes included the daily PSD (which also contained severity and bother items for 3 additional symptoms). Investigator global impression of change item (assessing change in severity of psoriasis symptoms) and 2 subject global impressions of change items (assessing change in severity of psoriasis symptoms and change in severity of itch/pruritus) were also assessed.
# Physician Global Assessment: The PGA is a clinical tool for assessing the current state/severity of a subject's psoriasis. It is a static 5-point morphological assessment of overall disease severity, as determined by the investigator, using the clinical characteristics of erythema, plaque thickness, and scaling as guidelines. At each specified time point, the PGA is made without reference to previous scores. Variations of the PGA are frequently used in clinical studies because it is a simple assessment that is more similar to the assessments actually used in clinical practice. Scoring system ranges from 0 (=Clear) to 4 (=Severe).
# Psoriasis Area and Severity Index: The PASI scoring system is a widely-used standard clinical tool for assessing the severity of psoriasis that takes into account the overall severity of erythema (redness), thickness (induration), and scale, as well as the extent of BSA affected with psoriasis. The 3 clinical signs are each graded on a 5 point scale (0 to 4) and the % BSA affected is scored on a 7-point scale (0 to 6) for each of the 4 specified body regions (head, upper extremities, trunk, and lower extremities). The individual scores are multiplied by a weighted factor for each body region; the sum of these scores gives the overall PASI score. Higher scores indicate more severe disease. PASI is a static assessment made without reference to previous scores.
# Body Surface Area: The extent of BSA affected by psoriasis is a general indicator of disease severity and was measured throughout the study. The extent of BSA to which study treatment was applied was also recorded. For the purpose of approximate clinical estimation, the total palmar surface of the palm plus 5 digits was assumed to be approximately equivalent to 1% BSA.
# Target Lesion Grading: A single target lesion was selected at Baseline to assess efficacy in treating a discrete area rather than an overall average of all areas. For that lesion, the severity of erythema, scaling, and plaque thickness was assessed by the investigator on a 5-point scale ranging from “0=none” to “4=severe”. […]
smiles,measurement,setting,value
"CC(C)c1c(O)cc(/C=C/c2ccccc2)cc1O [Tapinarof, 3,5-Dihydroxy-4-isopropyl-trans-stilbene]","difference in PGA response rate, active minus vehicle","0.5% BID-vehicle BID, Week 12",35.6%
same,PGA response at Week 12,"0.5% BID, 1 to <10% BSA affected at baseline",33%
same,"Target lesion Erythema, percent change from Baseline (Mean)","0.5% BID, Early WD",−25.00%
same,"Target lesion Plaque thickness, percent change from Baseline (Mean)","0.5% BID, Early WD",−33.33%
same,"Target lesion Scaling, percent change from Baseline (Mean)","0.5% BID, Early WD",−41.67%
same,PGA response at Week 12,"0.5% BID, Fitzpatrick skin type I/II",50%
same,PGA response at Week 12,"0.5% BID, Fitzpatrick skin type III/IV",60%
same,PGA response at Week 12,"0.5% BID, Fitzpatrick skin type V/VI",25%
same,"Target lesion Erythema, percent change from Baseline (Mean)","0.5% BID, Follow-up Week 14",−68.25%
same,"Target lesion Plaque thickness, percent change from Baseline (Mean)","0.5% BID, Follow-up Week 14",−67.86%
same,"Target lesion Scaling, percent change from Baseline (Mean)","0.5% BID, Follow-up Week 14",−68.65%
same,"Target lesion Erythema, percent change from Baseline (Mean)","0.5% BID, Follow-up/Week 16",−59.47%
same,"Target lesion Plaque thickness, percent change from Baseline (Mean)","0.5% BID, Follow-up/Week 16",−54.92%
same,"Target lesion Scaling, percent change from Baseline (Mean)","0.5% BID, Follow-up/Week 16",−57.95%
same,"Target lesion Erythema, percent change from Baseline (Mean)","0.5% BID, Week 1",−9.95%
same,"Target lesion Plaque thickness, percent change from Baseline (Mean)","0.5% BID, Week 1",−14.52%
same,"Target lesion Scaling, percent change from Baseline (Mean)","0.5% BID, Week 1",−12.37%
same,"Target lesion Erythema, percent change from Baseline (Mean)","0.5% BID, Week 2",−23.61%
same,"Target lesion Plaque thickness, percent change from Baseline (Mean)","0.5% BID, Week 2",−33.89%
same,"Target lesion Scaling, percent change from Baseline (Mean)","0.5% BID, Week 2",−35.00%
same,"Target lesion Erythema, percent change from Baseline (Mean)","0.5% BID, Week 4",−45.54%
same,"Target lesion Plaque thickness, percent change from Baseline (Mean)","0.5% BID, Week 4",−44.64%
same,"Target lesion Scaling, percent change from Baseline (Mean)","0.5% BID, Week 4",−50.89%
same,"Target lesion Erythema, percent change from Baseline (Mean)","0.5% BID, Week 8",−62.33%
same,"Target lesion Plaque thickness, percent change from Baseline (Mean)","0.5% BID, Week 8",−62.67%
same,"Target lesion Scaling, percent change from Baseline (Mean)","0.5% BID, Week 8",−60.00%
same,PGA response rate (primary endpoint),"0.5% BID, Week 8",36%
same,Mean change in nine items of the PSD from baseline,"0.5% BID, Week 12",−4.2^‡
same,Mean change in total target lesion grading scores from baseline,"0.5% BID, Week 12",−6.2*
same,"Target lesion Erythema, percent change from Baseline (Mean)","0.5% BID, Week 12",−76.52%
same,"Target lesion Plaque thickness, percent change from Baseline (Mean)","0.5% BID, Week 12",−71.59%
same,"Target lesion Scaling, percent change from Baseline (Mean)","0.5% BID, Week 12",−78.03%
same,subjects with ≥4 improvement in pruritus NRS score from baseline,"0.5% BID, Week 12",56%
same,PGA response rate (PGA 0 or 1 and ≥2-grade improvement),"0.5% BID, Week 12",46%
same,PASI50 response rate,"0.5% BID, Week 16",62%
same,PASI75 response rate,"0.5% BID, Week 16",46%
same,PASI90 response rate,"0.5% BID, Week 16",27%
same,PGA treatment success,0.5% BID,35%
same,PGA response at Week 12,"0.5% BID, psoriasis duration 5 years to <10 years",20%
same,PGA response at Week 12,"0.5% BID, psoriasis duration 6 months to <5 years",50%
same,PGA response at Week 12,"0.5% BID, psoriasis duration ≥10 years",53%
same,PGA response at Week 12,"0.5% BID, ≥10% BSA affected at baseline",75%
same,"difference in PGA response rate, active minus vehicle","0.5% QD-vehicle QD, Week 12",30.7%
same,PGA response at Week 12,"0.5% QD, 1 to <10% BSA affected at baseline",35%
same,"Target lesion Erythema, percent change from Baseline (Mean)","0.5% QD, Early WD",8.33%
same,"Target lesion Plaque thickness, percent change from Baseline (Mean)","0.5% QD, Early WD",0.00%
same,"Target lesion Scaling, percent change from Baseline (Mean)","0.5% QD, Early WD",−16.67%
same,PGA response at Week 12,"0.5% QD, Fitzpatrick skin type I/II",25%
same,PGA response at Week 12,"0.5% QD, Fitzpatrick skin type III/IV",44%
same,PGA response at Week 12,"0.5% QD, Fitzpatrick skin type V/VI",25%
same,"Target lesion Erythema, percent change from Baseline (Mean)","0.5% QD, Follow-up Week 14",−63.77%
same,"Target lesion Plaque thickness, percent change from Baseline (Mean)","0.5% QD, Follow-up Week 14",−67.39%
same,"Target lesion Scaling, percent change from Baseline (Mean)","0.5% QD, Follow-up Week 14",−67.75%
same,"Target lesion Erythema, percent change from Baseline (Mean)","0.5% QD, Follow-up/Week 16",−73.96%
same,"Target lesion Plaque thickness, percent change from Baseline (Mean)","0.5% QD, Follow-up/Week 16",−71.53%
same,"Target lesion Scaling, percent change from Baseline (Mean)","0.5% QD, Follow-up/Week 16",−69.79%
same,"Target lesion Erythema, percent change from Baseline (Mean)","0.5% QD, Week 1",−14.25%
same,"Target lesion Plaque thickness, percent change from Baseline (Mean)","0.5% QD, Week 1",−10.22%
same,"Target lesion Scaling, percent change from Baseline (Mean)","0.5% QD, Week 1",−20.97%
same,"Target lesion Erythema, percent change from Baseline (Mean)","0.5% QD, Week 2",−28.13%
same,"Target lesion Plaque thickness, percent change from Baseline (Mean)","0.5% QD, Week 2",−26.04%
same,"Target lesion Scaling, percent change from Baseline (Mean)","0.5% QD, Week 2",−34.38%
same,"Target lesion Erythema, percent change from Baseline (Mean)","0.5% QD, Week 4",−35.48%
same,"Target lesion Plaque thickness, percent change from Baseline (Mean)","0.5% QD, Week 4",−42.47%
same,"Target lesion Scaling, percent change from Baseline (Mean)","0.5% QD, Week 4",−51.34%
same,"Target lesion Erythema, percent change from Baseline (Mean)","0.5% QD, Week 8",−50.81%
same,"Target lesion Plaque thickness, percent change from Baseline (Mean)","0.5% QD, Week 8",−60.75%
same,"Target lesion Scaling, percent change from Baseline (Mean)","0.5% QD, Week 8",−68.01%
same,PGA response rate (primary endpoint),"0.5% QD, Week 8",46%
same,Mean change in nine items of the PSD from baseline,"0.5% QD, Week 12",−4.1^†
same,Mean change in total target lesion grading scores from baseline,"0.5% QD, Week 12",−5.8*
same,PASI90 response rate,"0.5% QD, Week 12",18%
same,"Target lesion Erythema, percent change from Baseline (Mean)","0.5% QD, Week 12",−65.06%
same,"Target lesion Plaque thickness, percent change from Baseline (Mean)","0.5% QD, Week 12",−67.31%
same,"Target lesion Scaling, percent change from Baseline (Mean)","0.5% QD, Week 12",−72.76%
same,subjects with ≥4 improvement in pruritus NRS score from baseline,"0.5% QD, Week 12",57%
same,PGA response rate (PGA 0 or 1 and ≥2-grade improvement),"0.5% QD, Week 12",36%
same,PASI50 response rate,"0.5% QD, Week 16",71%
same,PASI75 response rate,"0.5% QD, Week 16",54%
same,PASI90 response rate,"0.5% QD, Week 16",18%
same,PGA treatment success,0.5% QD,36%
same,PGA response at Week 12,"0.5% QD, psoriasis duration 5 years to <10 years",50%
same,PGA response at Week 12,"0.5% QD, psoriasis duration 6 months to <5 years",29%
same,PGA response at Week 12,"0.5% QD, psoriasis duration ≥10 years",33%
same,PGA response at Week 12,"0.5% QD, ≥10% BSA affected at baseline",38%
same,subjects rating overall psoriasis symptoms very improved or moderately improved,"0.5% groups, Week 12",77-80%
same,subjects rating pruritus symptoms very improved or moderately improved,"0.5% groups, Week 12",73-77%
same,PASI75 responders who maintained response from Week 12 to Week 16,1% BID,80%
same,PGA responders who maintained response from Week 12 to Week 16,1% BID,67%
same,"difference in PGA response rate, active minus vehicle","1% BID-vehicle BID, Week 12",54.7%
same,PGA response at Week 12,"1% BID, 1 to <10% BSA affected at baseline",67%
